Results as given in patent US20100048696A1, “AGRICULTURAL DISEASE CONTROL AGENT” (Idemitsu Kosan Co., Ltd., priority 2007, published 2010).
Where two headings read alike, the source gives them in different places.

Legend:
[1] = system: Burkholderia plantarii; experiment: Material disinfection test; type: cell-based; details: 5 minutes
[2] = system: Clavibacter michiganense subsp. Nebraskense (ATCC27822); experiment: Basic test: cutting knife disinfection, ring rot pathogens; type: cell-based; details: knife immersed 5 seconds; for sterilization of ring rot pathogens (in words): 2 to 10 times solutions; for sterilization effect on ring rot pathogens (in words): 25 to 50 times solutions
[3] = system: Pyricularia oryzae; type: cell-based; details: 5 minutes
[4] = system: Burkholderia glumae; experiment: Material disinfection test; type: cell-based; details: 5 minutes
[5] = system: Ralstonia solanacearum; type: cell-based; details: 5 minutes
[6] = system: Erwinia carotovora var. cartovora; experiment: Basic test: cutting knife disinfection, blackleg pathogens; type: cell-based; details: knife immersed 5 seconds; for sterilization of blackleg pathogens (in words): 2 to 10 times solutions; for sterilization effect on blackleg pathogens (in words): 25 to 50 times solutions
[7] = system: Erwinia carotovora var. cartovora; experiment: Test using potatoes: blackleg pathogenesis after cutting with disinfected knife; type: in vivo, potatoes Norin No. 1; details: for sterilization in test using potatoes (in words): 5 to 10 times solution; for Degree of pathogenesis: knife immersed 5 seconds at 5° C., average of 5 potatoes, about two months after seeding
[8] = system: bacteria pathogens and filamentous fungi pathogens; type: cell-based
[9] = system: Fusarium oxysporum; experiment: Material disinfection test; type: cell-based; details: 5 minutes
[10] = system: Rhizoctonia solani; experiment: Material disinfection test; type: cell-based; details: 5 minutes
[11] = system: Erwinia chrysanthemi; experiment: Material disinfection test; type: cell-based; details: 5 minutes
[12] = system: Botrytis cinerea; experiment: Material disinfection test; type: cell-based; details: 5 minutes
[13] = system: Pythium ultimum; experiment: Material disinfection test; type: cell-based; details: 5 minutes

O=C1C=CC(=O)O1 [Maleic anhydride]
Average value of viable bacteria counts on all materials examined ([1]; 2 times solution sprayed): 0 cfu/ml
Average value of viable bacteria counts on all materials examined ([1]; 5 times solution sprayed): 0 cfu/ml
Average value of viable bacteria counts on all materials examined ([1]; 25 times solution sprayed): 0 cfu/ml
Average value of viable bacteria counts on all materials examined ([1]; 50 times solution sprayed): 0 cfu/ml
Average value of viable bacteria counts on all materials examined ([1]; 100 times solution sprayed): 0 cfu/ml
Average value of viable bacteria counts on all materials examined ([1]; 200 times solution sprayed): 7 cfu/ml
Average value of viable bacteria counts on all materials examined ([1]; 500 times solution sprayed): 1.0 × 10^2 cfu/ml
sterilization of ring rot pathogens (in words) [2]: complete sterilization
sterilization effect on ring rot pathogens (in words) [2]: high sterilization effect
average value of viable filamentous fungi counts on all materials examined ([3]; 2 times solution sprayed): 0 cfu/ml
average value of viable filamentous fungi counts on all materials examined ([3]; 5 times solution sprayed): 0 cfu/ml
average value of viable filamentous fungi counts on all materials examined ([3]; 25 times solution sprayed): 0 cfu/ml
average value of viable filamentous fungi counts on all materials examined ([3]; 50 times solution sprayed): 0 cfu/ml
average value of viable filamentous fungi counts on all materials examined ([3]; 100 times solution sprayed): 0 cfu/ml
average value of viable filamentous fungi counts on all materials examined ([3]; 200 times solution sprayed): 32 cfu/ml
average value of viable filamentous fungi counts on all materials examined ([3]; 500 times solution sprayed): 1.5 × 10^2 cfu/ml
Average value of viable bacteria counts on all materials examined ([4]; 2 times solution sprayed): 0 cfu/ml
Average value of viable bacteria counts on all materials examined ([4]; 5 times solution sprayed): 0 cfu/ml
Average value of viable bacteria counts on all materials examined ([4]; 25 times solution sprayed): 0 cfu/ml
Average value of viable bacteria counts on all materials examined ([4]; 50 times solution sprayed): 0 cfu/ml
Average value of viable bacteria counts on all materials examined ([4]; 100 times solution sprayed): 0 cfu/ml
Average value of viable bacteria counts on all materials examined ([4]; 200 times solution sprayed): 69 cfu/ml
Average value of viable bacteria counts on all materials examined ([4]; 500 times solution sprayed): 2.0 × 10^2 cfu/ml
Average value of viable bacteria counts on all materials examined ([5]; 2 times solution sprayed): 0 cfu/ml
Average value of viable bacteria counts on all materials examined ([5]; 5 times solution sprayed): 0 cfu/ml
Average value of viable bacteria counts on all materials examined ([5]; 25 times solution sprayed): 0 cfu/ml
Average value of viable bacteria counts on all materials examined ([5]; 50 times solution sprayed): 0 cfu/ml
Average value of viable bacteria counts on all materials examined ([5]; 100 times solution sprayed): 0 cfu/ml
Average value of viable bacteria counts on all materials examined ([5]; 200 times solution sprayed): 4 cfu/ml
Average value of viable bacteria counts on all materials examined ([5]; 500 times solution sprayed): 58 cfu/ml
sterilization of blackleg pathogens (in words) [6]: complete sterilization
sterilization effect on blackleg pathogens (in words) [6]: high sterilization effect
sterilization in test using potatoes (in words) [7]: complete sterilization
sterilization effect in test using potatoes (in words) ([7]; 50 times solution): high sterilization effect
sterilization in material disinfection test (in words) [8]: complete sterilization

O=C(O)/C=C\C(=O)O [Maleic acid]
Average value of viable bacteria counts on all materials examined ([1]; 2 times solution sprayed): 0 cfu/ml
Average value of viable bacteria counts on all materials examined ([1]; 5 times solution sprayed): 0 cfu/ml
Average value of viable bacteria counts on all materials examined ([1]; 25 times solution sprayed): 0 cfu/ml
Average value of viable bacteria counts on all materials examined ([1]; 50 times solution sprayed): 0 cfu/ml
Average value of viable bacteria counts on all materials examined ([1]; 100 times solution sprayed): 0 cfu/ml
Average value of viable bacteria counts on all materials examined ([1]; 200 times solution sprayed): 65 cfu/ml
Average value of viable bacteria counts on all materials examined ([1]; 500 times solution sprayed): 1.5 × 10^2 cfu/ml
sterilization of ring rot pathogens (in words) [2]: complete sterilization
sterilization effect on ring rot pathogens (in words) [2]: high sterilization effect
average value of viable filamentous fungi counts on all materials examined ([3]; 2 times solution sprayed): 0 cfu/ml
average value of viable filamentous fungi counts on all materials examined ([3]; 5 times solution sprayed): 0 cfu/ml
average value of viable filamentous fungi counts on all materials examined ([3]; 25 times solution sprayed): 0 cfu/ml
average value of viable filamentous fungi counts on all materials examined ([3]; 50 times solution sprayed): 0 cfu/ml
average value of viable filamentous fungi counts on all materials examined ([3]; 100 times solution sprayed): 0 cfu/ml
average value of viable filamentous fungi counts on all materials examined ([3]; 200 times solution sprayed): 1.5 × 10^2 cfu/ml
average value of viable filamentous fungi counts on all materials examined ([3]; 500 times solution sprayed): 2.7 × 10^2 cfu/ml
average value of viable filamentous fungi counts on all materials examined ([9]; 2 times solution sprayed): 0 cfu/ml
average value of viable filamentous fungi counts on all materials examined ([9]; 5 times solution sprayed): 0 cfu/ml
average value of viable filamentous fungi counts on all materials examined ([9]; 25 times solution sprayed): 0 cfu/ml
average value of viable filamentous fungi counts on all materials examined ([9]; 50 times solution sprayed): 0 cfu/ml
average value of viable filamentous fungi counts on all materials examined ([9]; 100 times solution sprayed): 0 cfu/ml
average value of viable filamentous fungi counts on all materials examined ([9]; 200 times solution sprayed): 1.1 × 10^2 cfu/ml
average value of viable filamentous fungi counts on all materials examined ([9]; 500 times solution sprayed): 7.8 × 10^2 cfu/ml
average value of viable filamentous fungi counts on all materials examined ([10]; 2 times solution sprayed): 0 cfu/ml
average value of viable filamentous fungi counts on all materials examined ([10]; 5 times solution sprayed): 0 cfu/ml
average value of viable filamentous fungi counts on all materials examined ([10]; 25 times solution sprayed): 0 cfu/ml
average value of viable filamentous fungi counts on all materials examined ([10]; 50 times solution sprayed): 0 cfu/ml
average value of viable filamentous fungi counts on all materials examined ([10]; 100 times solution sprayed): 0 cfu/ml
average value of viable filamentous fungi counts on all materials examined ([10]; 200 times solution sprayed): 2.5 × 10^2 cfu/ml
average value of viable filamentous fungi counts on all materials examined ([10]; 500 times solution sprayed): 3.1 × 10^2 cfu/ml
Average value of viable bacteria counts on all materials examined ([4]; 2 times solution sprayed): 0 cfu/ml
Average value of viable bacteria counts on all materials examined ([4]; 5 times solution sprayed): 0 cfu/ml
Average value of viable bacteria counts on all materials examined ([4]; 25 times solution sprayed): 0 cfu/ml
Average value of viable bacteria counts on all materials examined ([4]; 50 times solution sprayed): 0 cfu/ml
Average value of viable bacteria counts on all materials examined ([4]; 100 times solution sprayed): 0 cfu/ml
Average value of viable bacteria counts on all materials examined ([4]; 200 times solution sprayed): 93 cfu/ml
Average value of viable bacteria counts on all materials examined ([4]; 500 times solution sprayed): 5.0 × 10^3 cfu/ml
Average value of viable bacteria counts on all materials examined ([5]; 2 times solution sprayed): 0 cfu/ml
Average value of viable bacteria counts on all materials examined ([5]; 5 times solution sprayed): 0 cfu/ml
Average value of viable bacteria counts on all materials examined ([5]; 25 times solution sprayed): 0 cfu/ml
Average value of viable bacteria counts on all materials examined ([5]; 50 times solution sprayed): 0 cfu/ml
Average value of viable bacteria counts on all materials examined ([5]; 100 times solution sprayed): 0 cfu/ml
Average value of viable bacteria counts on all materials examined ([5]; 200 times solution sprayed): 18 cfu/ml
Average value of viable bacteria counts on all materials examined ([5]; 500 times solution sprayed): 1.0 × 10^2 cfu/ml
Average value of viable bacteria counts on all materials examined ([11]; 2 times solution sprayed): 0 cfu/ml
Average value of viable bacteria counts on all materials examined ([11]; 5 times solution sprayed): 0 cfu/ml
Average value of viable bacteria counts on all materials examined ([11]; 25 times solution sprayed): 0 cfu/ml
Average value of viable bacteria counts on all materials examined ([11]; 50 times solution sprayed): 0 cfu/ml
Average value of viable bacteria counts on all materials examined ([11]; 100 times solution sprayed): 0 cfu/ml
Average value of viable bacteria counts on all materials examined ([11]; 200 times solution sprayed): 53 cfu/ml
Average value of viable bacteria counts on all materials examined ([11]; 500 times solution sprayed): 3.5 × 10^3 cfu/ml
sterilization of blackleg pathogens (in words) [6]: complete sterilization
sterilization effect on blackleg pathogens (in words) [6]: high sterilization effect
Degree of pathogenesis ([7]; 5 times solution): 0
sterilization in test using potatoes (in words) [7]: complete sterilization
Degree of pathogenesis ([7]; 10 times solution): 0
sterilization effect in test using potatoes (in words) ([7]; 50 times solution): high sterilization effect
Degree of pathogenesis ([7]; 50 times solution): 3 (20 to less than 40%)
average value of viable filamentous fungi counts on all materials examined ([12]; 2 times solution sprayed): 0 cfu/ml
average value of viable filamentous fungi counts on all materials examined ([12]; 5 times solution sprayed): 0 cfu/ml
average value of viable filamentous fungi counts on all materials examined ([12]; 25 times solution sprayed): 0 cfu/ml
average value of viable filamentous fungi counts on all materials examined ([12]; 50 times solution sprayed): 0 cfu/ml
average value of viable filamentous fungi counts on all materials examined ([12]; 100 times solution sprayed): 0 cfu/ml
average value of viable filamentous fungi counts on all materials examined ([12]; 200 times solution sprayed): 1.7 × 10^2 cfu/ml
average value of viable filamentous fungi counts on all materials examined ([12]; 500 times solution sprayed): 1.0 × 10^2 cfu/ml
sterilization in material disinfection test (in words) [8]: complete sterilization
average value of viable filamentous fungi counts on all materials examined ([13]; 2 times solution sprayed): 0 cfu/ml
average value of viable filamentous fungi counts on all materials examined ([13]; 5 times solution sprayed): 0 cfu/ml
average value of viable filamentous fungi counts on all materials examined ([13]; 25 times solution sprayed): 0 cfu/ml
average value of viable filamentous fungi counts on all materials examined ([13]; 50 times solution sprayed): 0 cfu/ml
average value of viable filamentous fungi counts on all materials examined ([13]; 100 times solution sprayed): 0 cfu/ml
average value of viable filamentous fungi counts on all materials examined ([13]; 200 times solution sprayed): 73 cfu/ml
average value of viable filamentous fungi counts on all materials examined ([13]; 500 times solution sprayed): 3.1 × 10^3 cfu/ml
